These results are taken from publication PMC4503722, “Novel Phenotypic Outcomes Identified for a Public Collection of Approved Drugs from a Publicly Accessible Panel of Assays” (PLoS ONE, 2015).

The target of one assay is T1, hFLT3 (Homo sapiens, UniProt P36888).
T1 construct: purchased Cerep (LANCE kinase assay platform, contract assay)
As to the kind of experiment: Cerep LANCE kinase assay hFLT3 (S1 assay 35). The format is biochemical. Conditions: assay number 35.

The target in another assay is T2, hp70S6K1 (RPS6KB1) (Homo sapiens, UniProt P23443).
T2 construct: purchased Cerep (LANCE kinase assay platform, contract assay)
T2 sequence (P23443 whole entry): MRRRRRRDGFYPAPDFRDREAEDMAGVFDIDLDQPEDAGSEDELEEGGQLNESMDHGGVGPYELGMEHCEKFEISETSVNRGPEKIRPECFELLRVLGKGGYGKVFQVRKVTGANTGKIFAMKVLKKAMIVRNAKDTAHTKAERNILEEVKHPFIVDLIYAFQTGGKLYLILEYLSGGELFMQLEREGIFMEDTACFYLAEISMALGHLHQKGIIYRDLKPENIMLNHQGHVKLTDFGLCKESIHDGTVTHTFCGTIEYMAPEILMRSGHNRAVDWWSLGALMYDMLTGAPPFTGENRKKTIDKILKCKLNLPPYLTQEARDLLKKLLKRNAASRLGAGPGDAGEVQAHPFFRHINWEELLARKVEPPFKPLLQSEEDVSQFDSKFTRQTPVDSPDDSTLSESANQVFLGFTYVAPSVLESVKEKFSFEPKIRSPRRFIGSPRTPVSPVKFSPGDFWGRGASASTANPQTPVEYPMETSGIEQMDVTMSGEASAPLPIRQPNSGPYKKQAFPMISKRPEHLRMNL
Put plainly: Cerep LANCE kinase assay hp70S6K1 (S1 assay 31). The class given is biochemical. Conditions: assay number 31.

Assay [1] has as its system endothelial tube formation in co-cultures of ECFCs and ADSCs treated with VEGF. Put plainly: cells. The format is cell-based, human. Conditions: for IC50: Homo sapiens, read-out: Anti-Angio IC50.
Assay [2] deals with INS-1E cells. The format is cell-based, rat. Conditions: assay number 9; 0.1 mM glucose.
Another assay deals with T3, hJAK2 (Homo sapiens, UniProt O60674).
T3 construct: purchased Cerep (LANCE kinase assay platform, contract assay)
T3 sequence (O60674 whole entry): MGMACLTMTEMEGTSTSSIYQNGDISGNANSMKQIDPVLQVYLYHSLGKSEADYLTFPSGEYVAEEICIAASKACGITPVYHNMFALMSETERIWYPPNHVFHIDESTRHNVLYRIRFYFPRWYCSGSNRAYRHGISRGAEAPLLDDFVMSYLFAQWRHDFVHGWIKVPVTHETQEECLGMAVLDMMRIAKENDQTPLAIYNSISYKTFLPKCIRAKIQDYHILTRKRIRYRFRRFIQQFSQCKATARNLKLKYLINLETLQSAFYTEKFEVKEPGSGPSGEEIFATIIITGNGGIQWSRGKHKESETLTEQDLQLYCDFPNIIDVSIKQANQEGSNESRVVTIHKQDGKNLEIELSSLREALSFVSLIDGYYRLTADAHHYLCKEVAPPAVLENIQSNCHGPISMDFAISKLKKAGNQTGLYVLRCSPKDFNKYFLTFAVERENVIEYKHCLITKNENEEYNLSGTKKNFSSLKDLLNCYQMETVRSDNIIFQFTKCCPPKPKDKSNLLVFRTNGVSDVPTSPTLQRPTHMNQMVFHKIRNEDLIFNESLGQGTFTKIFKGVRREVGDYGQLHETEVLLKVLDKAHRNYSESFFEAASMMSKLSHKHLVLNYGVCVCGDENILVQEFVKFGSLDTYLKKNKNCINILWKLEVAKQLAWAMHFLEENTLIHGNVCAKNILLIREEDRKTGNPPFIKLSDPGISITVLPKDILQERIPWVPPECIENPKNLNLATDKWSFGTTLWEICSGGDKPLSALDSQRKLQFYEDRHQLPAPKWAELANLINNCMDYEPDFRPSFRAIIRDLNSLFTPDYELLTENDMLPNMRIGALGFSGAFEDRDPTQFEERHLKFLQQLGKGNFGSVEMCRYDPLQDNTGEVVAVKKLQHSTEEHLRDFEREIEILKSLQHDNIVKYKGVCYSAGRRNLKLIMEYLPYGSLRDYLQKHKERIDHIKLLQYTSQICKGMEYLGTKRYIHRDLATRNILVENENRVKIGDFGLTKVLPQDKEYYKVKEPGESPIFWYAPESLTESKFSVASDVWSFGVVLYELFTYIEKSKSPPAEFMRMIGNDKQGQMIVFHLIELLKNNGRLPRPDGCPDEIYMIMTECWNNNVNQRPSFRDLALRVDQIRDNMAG
Put plainly: Cerep LANCE kinase assay hJAK2 (S1 assay 33). The format is biochemical. Conditions: assay number 33.

Another assay deals with T4, hKDR (Homo sapiens, UniProt P35968).
T4 construct: purchased Cerep (LANCE kinase assay platform, contract assay)
T4 sequence (P35968 20-1356): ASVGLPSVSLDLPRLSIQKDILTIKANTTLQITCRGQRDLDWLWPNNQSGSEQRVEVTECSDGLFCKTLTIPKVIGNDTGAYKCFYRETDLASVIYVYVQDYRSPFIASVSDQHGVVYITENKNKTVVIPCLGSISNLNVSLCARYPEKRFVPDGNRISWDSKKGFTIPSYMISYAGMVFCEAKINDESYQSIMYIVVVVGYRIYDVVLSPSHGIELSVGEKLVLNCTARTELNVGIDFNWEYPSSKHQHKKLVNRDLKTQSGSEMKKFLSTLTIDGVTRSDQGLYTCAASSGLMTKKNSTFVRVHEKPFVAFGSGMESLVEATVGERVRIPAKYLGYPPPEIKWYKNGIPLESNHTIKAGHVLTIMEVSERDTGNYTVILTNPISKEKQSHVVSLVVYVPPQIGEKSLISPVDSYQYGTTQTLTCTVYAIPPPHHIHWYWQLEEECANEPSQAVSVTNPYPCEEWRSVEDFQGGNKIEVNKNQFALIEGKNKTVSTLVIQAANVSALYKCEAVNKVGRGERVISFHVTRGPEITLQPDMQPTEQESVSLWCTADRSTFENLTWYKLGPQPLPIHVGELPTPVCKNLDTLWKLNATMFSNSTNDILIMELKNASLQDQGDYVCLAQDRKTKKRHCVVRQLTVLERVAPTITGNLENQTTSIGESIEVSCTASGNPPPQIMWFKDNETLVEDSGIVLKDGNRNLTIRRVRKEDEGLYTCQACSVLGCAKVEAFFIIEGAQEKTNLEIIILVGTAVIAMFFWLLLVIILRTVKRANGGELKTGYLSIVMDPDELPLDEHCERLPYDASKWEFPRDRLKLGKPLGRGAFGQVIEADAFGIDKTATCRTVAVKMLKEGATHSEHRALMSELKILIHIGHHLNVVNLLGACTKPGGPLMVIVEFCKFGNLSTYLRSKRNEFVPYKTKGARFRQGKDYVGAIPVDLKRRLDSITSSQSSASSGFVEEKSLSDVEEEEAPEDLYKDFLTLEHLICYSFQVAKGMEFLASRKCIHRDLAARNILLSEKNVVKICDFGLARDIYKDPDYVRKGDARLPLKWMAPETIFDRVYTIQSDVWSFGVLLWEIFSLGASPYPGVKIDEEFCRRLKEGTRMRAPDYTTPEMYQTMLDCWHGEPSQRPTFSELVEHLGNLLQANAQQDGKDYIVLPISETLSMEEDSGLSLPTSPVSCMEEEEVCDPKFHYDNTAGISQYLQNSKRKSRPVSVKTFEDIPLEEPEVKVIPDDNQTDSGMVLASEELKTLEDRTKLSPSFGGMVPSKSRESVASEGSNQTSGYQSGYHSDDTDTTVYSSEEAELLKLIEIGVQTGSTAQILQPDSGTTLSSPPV
As to the kind of experiment: Cerep LANCE kinase assay hKDR (S1 assay 32). The format is biochemical. Conditions: assay number 32.

The test system of assay [3] is INS-1E cells. As to the kind of experiment: cells. The format is cell-based, rat.
In another assay the test system is HeLa cells. As to the kind of experiment: cells. The format is cell-based. Conditions: for Hela CellCycMod PI 2N IC50/EC50: assay number 14; for Hela CellCycMod PI 4N IC50/EC50: assay number 16; for Hela CellCycMod PI MI IC50/EC50: assay number 17; for Hela CellCycMod PI Cell Number IC50/EC50: assay number 18; for EC50: Homo sapiens, HeLa, read-out: CellCycle G2/M.

Assay [4] has as its system alkaline phosphatase (ALP) activity in C2C12 cells. The format is cell-based. Conditions: assay number 6; concentration response.
In assay [5] the test system is nuclear β-catenin in C2C12 cells. Put plainly: cells. The class given is cell-based. Conditions: for WntCondMedia_bCatenin C2C12 IC50/EC50: assay number 5, concentration response; for EC50: Mus musculus.
The subject of assay [6] is ECFC/ADSC co-culture cell nuclei number.
In another assay the target is T5, hGSK3b (Homo sapiens, UniProt P49841).
T5 construct: purchased Cerep (LANCE kinase assay platform, contract assay)
T5 sequence (P49841 whole entry): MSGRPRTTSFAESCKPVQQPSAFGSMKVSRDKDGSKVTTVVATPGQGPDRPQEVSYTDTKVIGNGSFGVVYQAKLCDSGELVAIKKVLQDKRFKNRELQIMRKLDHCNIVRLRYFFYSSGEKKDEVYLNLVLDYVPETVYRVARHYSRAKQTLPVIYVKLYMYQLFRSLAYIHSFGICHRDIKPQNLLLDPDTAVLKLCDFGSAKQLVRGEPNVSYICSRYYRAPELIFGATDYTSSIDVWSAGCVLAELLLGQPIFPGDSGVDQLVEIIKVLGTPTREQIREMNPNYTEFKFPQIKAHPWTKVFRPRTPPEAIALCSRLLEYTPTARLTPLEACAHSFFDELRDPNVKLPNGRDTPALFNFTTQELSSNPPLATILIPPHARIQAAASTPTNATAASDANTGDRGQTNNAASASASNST
Put plainly: Cerep LANCE kinase assay hGSK3b (S1 assay 34). The format is biochemical. Conditions: assay number 34.

Assay [7] relates to HCT116 cells treated with a GSK3β inhibitor. Put plainly: cells. The class given is cell-based. Conditions: Homo sapiens.
In the next assay the test system is NCI-H716 cells. As to the kind of experiment: cells. The class given is cell-based, Human. Conditions: Homo sapiens, NCI-H716, read-out: GLP1 sec. EC50.
A further assay concerns HCT116. As to the kind of experiment: cells. The class given is cell-based. Conditions: Homo sapiens.
Assay [8] concerns tonic K+ channel activity in INS-1E cells. Put plainly: cells. The format is cell-based, rat. Conditions: Rattus norvegicus, INS-1E, read-out: K+ channel assay IC50.
A further assay concerns SW480. As to the kind of experiment: cells. The format is cell-based. Conditions: Homo sapiens.
For the next assay, the system named is DLD-1. As to the kind of experiment: cells. The class given is cell-based. Conditions: Homo sapiens.
Where [9] appears, read: HCT-116, 72 h, read-out: HCT-116 (GSK3β) viab. IC50.
Where [10] appears, read: Rattus norvegicus, INS-1E, read-out: Ins. sec. EC50.
[11] abbreviates: Rattus norvegicus, INS-1E, read-out: Insulin Secretion.
Setting [12] is: HCT-116, 72 h, read-out: HCT-116 viab. IC50.
[13] abbreviates: SW480, 72 h, read-out: SW480 viab. IC50.
Setting [14] is: SW480, read-out: Basal_Viability ATP SW480.
Setting [15] is: DLD-1, 72 h, read-out: DLD-1 viab. IC50.

Where two headings read alike, the source gives them in different places.
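Throughout, for 5mMGluc INS1E SecretionMod IC50/EC50: secreted insulin quantified by homogeneous immunoassay.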

T1 sequence (P36888 27-993): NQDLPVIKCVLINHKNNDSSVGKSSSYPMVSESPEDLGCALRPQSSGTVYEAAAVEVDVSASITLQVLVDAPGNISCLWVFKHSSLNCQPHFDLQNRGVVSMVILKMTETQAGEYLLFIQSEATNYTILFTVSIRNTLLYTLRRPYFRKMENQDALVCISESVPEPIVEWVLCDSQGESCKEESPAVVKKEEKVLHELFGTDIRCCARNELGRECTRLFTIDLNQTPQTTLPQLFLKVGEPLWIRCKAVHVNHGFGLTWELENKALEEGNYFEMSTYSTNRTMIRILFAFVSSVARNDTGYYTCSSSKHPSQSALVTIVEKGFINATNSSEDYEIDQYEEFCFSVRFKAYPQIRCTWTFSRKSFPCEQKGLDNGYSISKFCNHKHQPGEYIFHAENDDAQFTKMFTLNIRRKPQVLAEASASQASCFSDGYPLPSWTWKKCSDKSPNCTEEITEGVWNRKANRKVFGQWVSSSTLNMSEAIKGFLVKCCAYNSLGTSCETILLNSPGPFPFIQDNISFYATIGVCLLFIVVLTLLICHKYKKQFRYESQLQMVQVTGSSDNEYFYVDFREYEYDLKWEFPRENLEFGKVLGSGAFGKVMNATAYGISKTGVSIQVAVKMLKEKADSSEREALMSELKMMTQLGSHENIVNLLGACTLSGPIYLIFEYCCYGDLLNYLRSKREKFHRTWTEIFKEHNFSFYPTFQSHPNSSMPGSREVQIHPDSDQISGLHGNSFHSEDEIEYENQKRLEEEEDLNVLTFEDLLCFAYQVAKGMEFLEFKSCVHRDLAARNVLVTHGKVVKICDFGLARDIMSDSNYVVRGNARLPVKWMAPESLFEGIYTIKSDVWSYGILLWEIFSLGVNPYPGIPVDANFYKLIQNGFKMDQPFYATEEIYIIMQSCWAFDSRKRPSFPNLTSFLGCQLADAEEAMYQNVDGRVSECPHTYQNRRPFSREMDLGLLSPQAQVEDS

For `CSc1ccc2c(c1)C(N1CCN(C)CC1)Cc1ccccc1S2` (centres unmarked) [NCGC00024665-10], the “hFLT3 LANCE IC50/EC50” value on hFLT3 is reported as above 20 µM. Also, on hp70S6K1 (RPS6KB1), the “hp70S6K1 LANCE IC50/EC50” value is given as above 20 µM. Also, in assay [1], the “VEGF_ADSC\ECFC Angio CD31 TubeArea IC50/EC50” value is reported as above 10 µM. The “0.1mMGluc_INS1E SecretionMod Act IC50/EC50” value in the assay with INS-1E cells [2] is on record as above 33.33 µM. For the same molecule, the “hJAK2 LANCE IC50/EC50” value at hJAK2 is above 20 µM. Besides, the “hKDR LANCE IC50/EC50” value at hKDR was above 20 µM. For the same molecule, in the assay on INS-1E cells [3] (assay number 8; 5 mM glucose), the “5mMGluc_INS1E SecretionMod IC50/EC50” value came out at 2.944 µM. Further, in the assay on HeLa cells, the “Hela CellCycMod PI 2N IC50/EC50” value is above 10 µM, the “Hela CellCycMod PI 4N IC50/EC50” value is on record as above 10 µM, the “Hela CellCycMod PI MI IC50/EC50” value was above 10 µM and the “Hela CellCycMod PI Cell Number IC50/EC50” value is above 10 µM. Moreover, in [4], the “WntCondMedia_Alk Phos C2C12 IC50/EC50” value was above 20 µM. In addition, the “WntCondMedia_bCatenin C2C12 IC50/EC50” value in assay [5] was above 20 µM. Besides, the “VEGF_ADSC\ECFC Angio Hoechst NucArea IC50/EC50” value in [6] is on record as above 10 µM. Moreover, the “hGSK3b LANCE IC50/EC50” value at hGSK3b is recorded as above 20 µM.

Consider `Nc1ccc2cc3ccc(N)cc3nc2c1` [NCGC00166245-04], for which the “hFLT3 LANCE IC50/EC50” value on hFLT3 is listed as above 20 µM. In addition, on hp70S6K1 (RPS6KB1), the “hp70S6K1 LANCE IC50/EC50” value is listed as above 20 µM. Moreover, the “0.1mMGluc_INS1E SecretionMod Act IC50/EC50” value with INS-1E cells [2] is above 33.33 µM. For the same molecule, the “hJAK2 LANCE IC50/EC50” value on hJAK2 is reported as above 20 µM. Further, the “hKDR LANCE IC50/EC50” value on hKDR is listed as above 20 µM. Moreover, the “5mMGluc_INS1E SecretionMod IC50/EC50” value in the assay on INS-1E cells [3] (assay number 8; 5 mM glucose) worked out at 20.6221 µM. In addition, in the assay with HeLa cells, the “Hela CellCycMod PI 2N IC50/EC50” value is on record as above 10 µM, the “Hela CellCycMod PI 4N IC50/EC50” value is listed as above 10 µM, the “Hela CellCycMod PI MI IC50/EC50” value turned out to be 2.4689 µM and the “Hela CellCycMod PI Cell Number IC50/EC50” value was 1.3426 µM. Moreover, the “Hela CellCycMod PI S Phase IC50/EC50” value in the assay with HeLa cells (assay number 15, S phase) is on record as 3.4397 µM. Also, the “WntCondMedia_Alk Phos C2C12 IC50/EC50” value in assay [4] is above 20 µM. In addition, the “WntCondMedia_bCatenin C2C12 IC50/EC50” value in assay [5] is 5.9868 µM. Further, the “hGSK3b LANCE IC50/EC50” value on hGSK3b was above 20 µM.

For `CN(C)CCC=C1c2ccccc2CCc2ccccc21` [amitriptyline, reference compound], the IC50 in assay [7] (setting [9]) is above 20 µM; in assay [1], above 10 µM; in the assay with HCT116 (setting [12]), above 20 µM; in assay [8] it was 6.2 µM; with SW480 (setting [13]), 10.1 µM; in the assay with SW480 (setting [14]), 10.1 µM. Moreover, the IC50 in the assay on DLD-1 (setting [15]) was above 20 µM. Besides, the EC50 with NCI-H716 cells was above 10 µM; in the assay with INS-1E cells [3] (setting [10]), 3 µM; with INS-1E cells [3] (setting [11]) it was 3 µM; with HeLa cells it was above 10 µM; in assay [5] (C2C12, read-out: Wnt pot. EC50), above 10 µM.

Take `CC(CC1c2ccccc2CCc2ccccc21)CN(C)C` (centres unmarked) [butriptyline, reference compound]: the IC50 in [7] (setting [9]) is above 20 µM; in assay [1], above 10 µM; with HCT116 (setting [12]), 6.2 µM; in the assay with HCT116 (HCT-116, read-out: Basal_Viability ATP HCT116) it was 6.21 µM; in assay [8], above 20 µM; in the assay with SW480 (setting [13]) it was 7.8 µM. Further, the IC50 with SW480 (setting [14]) turned out to be 7.84 µM; with DLD-1 (setting [15]), 8.1 µM; in the assay on DLD-1 (DLD-1, read-out: Basal_Viability ATP DLD-1) it was 8.1 µM. Also, the EC50 in the assay with NCI-H716 cells is above 10 µM; with INS-1E cells [3] (setting [10]) it was 3.6 µM; in the assay on INS-1E cells [3] (setting [11]), 3.64 µM; in the assay with HeLa cells it was above 10 µM; in [5] (C2C12, read-out: Wnt pot. EC50), above 10 µM.

On to `CCN(CC)CCOc1ccccc1C(=O)CCc1ccccc1` [etafenone, reference compound], for which the IC50 in assay [7] (HCT-116, read-out: HCT-116 (GSK3β) viab. IC50, Table 2, GSK3β inhibitor LY2090314 20 nM, 72 h, Cell TiterGlo, 20 coded) was above 20 µM; in assay [1] (Table 2, primary assay tube area, 20 = no response in concentration-response, 20.1 = inactive in single concentration testing), above 10 µM; in the assay with HCT116 (HCT-116, 72 h, read-out: HCT-116 viab. IC50, Table 2, basal, 72 h, Cell TiterGlo, non-adherent, 20 coded), 11.2 µM; with HCT116 (HCT-116, basal, HCT116, read-out: Basal_Viability ATP HCT116), 11.2 µM; in assay [8] (0.1 mM glucose, thallium flux), 6.7 µM; in the assay on SW480 (SW480, 72 h, Table 2, 72 h, Cell TiterGlo, non-adherent, 20 coded, read-out: SW480 viab. IC50) it was 16.9 µM. Besides, the IC50 in the assay with SW480 (SW480, basal, SW480, read-out: Basal_Viability ATP SW480) is 16.9 µM; in the assay with DLD-1 (DLD-1, 72 h, Table 2, 72 h, Cell TiterGlo, non-adherent, 20 coded, read-out: DLD-1 viab. IC50), above 20 µM. In addition, the EC50 in the assay with INS-1E cells [3] (Rattus norvegicus, INS-1E; read-out: Ins. sec. EC50) was 3.9 µM; in the assay on INS-1E cells [3] (Rattus norvegicus, INS-1E; read-out: Insulin Secretion), 3.89 µM; with HeLa cells (S2 Table, 20 = no response at highest concentration), above 10 µM; in assay [5] (C2C12, Table 2, C2C12, […], 20 / 20.1 coded, read-out: Wnt pot. EC50) it was above 10 µM. For the same molecule, the “G2/M IC50 / EC50” value in the assay on HeLa cells was 20 (values shown as 20 indicate that the compound was tested in concentration-response and showed no response at the highest concentration tested (e.g. IC50 > 20 μM)).
